Measured values: patent USRE46511E1, “Fused pyrimidine derivatives for inhibition of tyrosine kinase activity” (HANMI SCIENCE CO., LTD., priority 2010, dated 2017)
pIC50: −log10 of the molar value.

Columns and labels:
[1] = tested on: NCI-H1975 (EGFR L858R/T790M); assay: Inhibition test for growth of cancer cell expressing EGFR (MTS), NCI-H1975; format: cell-based; conditions: Homo sapiens; NCI-H1975 cells, 48 hours, MTS; read-out: GI50 NCI-H1975 EGFR L858R/T790M
Procedure: (§4) A431 cell line was incubated in a high-glucose DMEM (Dulbecco's Modified Eagle's Medium) supplemented with 10% fetal bovine serum (FBS) and 1% penicillin/streptomycin (Gibco BRL), and HCC827 and NCI-H1975 cell lines were incubated in an RPMI medium supplemented with 10% FBS, 1% penicillin/streptomycin and 1% sodium pyruvate.
(§5) The cancer cell lines stored in a liquid nitrogen tank were each quickly thawed at 37° C., and centrifuged to remove the medium. The resulting cell pellet was mixed with a culture medium, incubated in a culture flask at 37° C. under 5% CO2 for 2 to 3 days, and the medium was removed. The remaining cells were washed with DPBS (Dulbecco's Phosphate Buffered Saline) and separated from the flask by using Tripsin-EDTA. […] 100 μl of the diluted cell solution was added to each well of a 96-well plate, and incubated at 37° C. under 5% CO2 for 1 day.
(§6) In case that the test compound was not soluble in DMSO, 1% HCl was added thereto and treated in a 40° C. water bath for 30 mins until a complete dissolution was attained. The DMSO solution containing test compound was diluted with a culture medium to a final concentration of 100 μM, and then diluted 10 times serially to 10^−6 μM (a final concentration of DMSO was less than 1%).
(§7) The medium was removed from each well of the 96-well plate. And then, 100 μl of a test compound solution was added to each well holding the cultured cells, and the plate was incubated at 37° C. under 5% CO2 for 72 hours (except that NCI-H1975 cells were incubated for 48 hours). After removing the medium from the plate, 50 μA of 10% trichloroacetic acid was added to each well, and the plate was kept at 4° C. for 1 hour to fix the cells to the bottom of the plate. The added 10% trichloroacetic acid solution was removed from each well, the plate was dried, 100 μA of an SRB (Sulforhodamine-B) dye solution at a concentration of 0.4% dissolved in 1% acetic acid was added thereto, and the resulting mixture was reacted for 10 mins at room temperature. After removing the dye solution, the plate was washed with water, and well dried. When the dye solution was not effectively removed by water, 1% acetic acid was used. 150 μA of 10 mM trisma base was added to each well, and the absorbance at 540 nm wavelength was determined with a microplate reader.

BTK = molecular target: T1, BTK (Homo sapiens, UniProt Q06187); assay: z-lyte kinase assay, BTK; format: biochemical
T1 construct: purchased Invitrogen
T1 sequence (Q06187 whole entry): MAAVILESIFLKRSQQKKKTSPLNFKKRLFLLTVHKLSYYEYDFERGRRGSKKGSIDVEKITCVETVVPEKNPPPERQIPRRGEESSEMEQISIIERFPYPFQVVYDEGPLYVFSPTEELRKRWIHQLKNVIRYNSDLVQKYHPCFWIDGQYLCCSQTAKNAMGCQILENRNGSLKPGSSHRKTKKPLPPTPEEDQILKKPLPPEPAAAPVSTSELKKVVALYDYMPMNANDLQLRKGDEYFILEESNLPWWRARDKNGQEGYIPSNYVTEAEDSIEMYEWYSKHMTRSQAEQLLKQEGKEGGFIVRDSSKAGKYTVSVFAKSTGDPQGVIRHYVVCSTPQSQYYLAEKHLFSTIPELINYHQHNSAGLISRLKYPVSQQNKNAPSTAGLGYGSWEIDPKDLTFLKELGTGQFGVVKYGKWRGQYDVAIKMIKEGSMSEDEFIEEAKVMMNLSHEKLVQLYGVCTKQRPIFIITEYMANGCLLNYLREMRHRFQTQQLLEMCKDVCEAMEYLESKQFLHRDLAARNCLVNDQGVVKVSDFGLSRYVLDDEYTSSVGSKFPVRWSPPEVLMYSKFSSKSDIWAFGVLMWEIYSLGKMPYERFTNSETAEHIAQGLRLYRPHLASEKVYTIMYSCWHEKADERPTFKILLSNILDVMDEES
Procedure: (§1) The inhibiting activities of the inventive compounds obtained in Examples 1 to 237 against EGFR WT and EGFR L858R/T790M kinase were determined using z-lyte kinase assay kit (Invitrogen, PV3191). The kinases used in the test were purchased from Invitrogen.
(§2) The compounds obtained in Examples 1 to 237 were each prepared to 10 mM DMSO solution, and a solution containing 4% DMSO were prepared therefrom and diluted to a concentration of 1 μM to 0.0001 μM. […] The test was conducted in a 384 well polystyrene flat-bottomed plates. 5 μl of the diluted solution of each compound was added to each well, and 10 μl of a mixture of peptide substrate and kinase in a suitable concentration and 5 μl of 5˜300 μM ATP solution were successively added thereto and the plate was incubated in a stirrer at room temperature for 60 minutes. After 60 mins, 10 μl of coloring reagent was added to the resulting mixture to initiate a fluorescence reaction of peptide substrate and a terminating solution was added thereto for terminating the reaction. A fluorescence value of each well was determined with a fluorescence meter (Molecular Device) at 400 nm (excitation filter) and 520 nm (emission filter). […] The calculation of IC50 and the result analysis were carried out by using Microsoft Excel.
(§3) The inhibiting activities of the inventive compounds obtained in Examples 1 to 237 against BTK and JAK3 kinases were determined, respectively. The procedure of Test Example 2 was repeated except that BTK and JAK3 kinases (Invitrogen) were employed instead of using the EGFR kinase.

A431 (EGFR WT) = assay: Inhibition test for growth of cancer cell expressing EGFR (SRB), A431; format: cell-based; conditions: Homo sapiens, A-431; A431 cells, 72 hours, SRB; read-out: GI50 A431 EGFR WT;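 note: cells in 96-well plates exposed to tenfold serial dilutions from 100 µM down to 10^−6 µM, DMSO under 1%, SRB staining read as absorbance at 540 nm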
Procedure: as §4, §5, §6, §7

JAK3 = molecular target: T2, JAK3 (Homo sapiens, UniProt P52333); assay: z-lyte kinase assay, JAK3; format: biochemical
T2 construct: purchased Invitrogen
T2 sequence (P52333 1-1124): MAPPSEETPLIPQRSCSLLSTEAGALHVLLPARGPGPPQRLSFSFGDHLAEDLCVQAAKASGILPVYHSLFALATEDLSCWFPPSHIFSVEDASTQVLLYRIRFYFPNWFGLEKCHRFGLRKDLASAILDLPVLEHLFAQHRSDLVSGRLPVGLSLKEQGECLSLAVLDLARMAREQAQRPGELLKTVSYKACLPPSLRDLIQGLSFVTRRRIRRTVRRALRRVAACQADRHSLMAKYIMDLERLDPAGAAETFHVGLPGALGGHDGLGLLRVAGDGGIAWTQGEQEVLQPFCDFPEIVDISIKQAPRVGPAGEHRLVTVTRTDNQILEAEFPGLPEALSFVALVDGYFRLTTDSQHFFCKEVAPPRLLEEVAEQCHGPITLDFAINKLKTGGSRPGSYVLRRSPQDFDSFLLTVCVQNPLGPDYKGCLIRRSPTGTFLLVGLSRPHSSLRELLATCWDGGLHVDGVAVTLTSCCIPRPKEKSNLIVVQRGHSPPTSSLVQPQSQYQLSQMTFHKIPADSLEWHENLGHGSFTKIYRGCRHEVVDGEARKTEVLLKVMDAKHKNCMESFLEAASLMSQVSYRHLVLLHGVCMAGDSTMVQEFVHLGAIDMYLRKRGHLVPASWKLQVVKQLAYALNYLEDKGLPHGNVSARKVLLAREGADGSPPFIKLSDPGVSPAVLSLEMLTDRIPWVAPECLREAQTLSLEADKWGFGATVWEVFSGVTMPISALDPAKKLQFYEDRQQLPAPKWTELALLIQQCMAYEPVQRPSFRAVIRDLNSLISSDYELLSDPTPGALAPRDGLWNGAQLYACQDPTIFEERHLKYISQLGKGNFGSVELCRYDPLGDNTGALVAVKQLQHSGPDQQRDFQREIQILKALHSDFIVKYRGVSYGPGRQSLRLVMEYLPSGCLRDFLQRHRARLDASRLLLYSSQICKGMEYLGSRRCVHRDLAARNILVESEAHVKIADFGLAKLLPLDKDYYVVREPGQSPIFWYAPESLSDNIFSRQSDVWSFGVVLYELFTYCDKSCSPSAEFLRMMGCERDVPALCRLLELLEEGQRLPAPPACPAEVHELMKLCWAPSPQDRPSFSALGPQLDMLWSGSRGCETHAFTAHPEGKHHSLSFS
Procedure: as §1, §2, §3

[2] = tested on: HCC827 (EGFR DelE746_A750); assay: Inhibition test for growth of cancer cell expressing EGFR (SRB), HCC827; format: cell-based; conditions: Homo sapiens, HCC827, 72 h, HCC827 cells, 72 hours, SRB; read-out: GI50 HCC827 EGFR DelE746_A750;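 note: cells in 96-well plates exposed to tenfold serial dilutions from 100 µM, fixed with trichloroacetic acid, SRB-stained, absorbance read at 540 nm, DMSO under 1%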
Procedure: as §4, §5, §6, §7

SMILES | GI50 [1] [µM] | pIC50 (BTK) | GI50 (A431 (EGFR WT)) [µM] | pIC50 (JAK3) | GI50 [2] [µM]
C=CC(=O)Nc1cccc(Oc2nc(Nc3ccc(NCCN(C)C)cc3)nc3ccsc23)c1 [Example 57] | 0.1 to 1 | ≥ 7.30 |  | 7.00 to 7.30 | < 0.05
C=CC(=O)Nc1cccc(Oc2nc(Nc3ccc(CN4CCC(N(C)C)CC4)cc3)nc3ccoc23)c1 [Example 232] | 0.05 to 0.1 | ≥ 7.30 |  | ≥ 7.30 | 0.05 to 0.1
C=CC(=O)Nc1cccc(Oc2nc(Nc3ccc(C4CCCN(C)C4)cc3)nc3ccsc23)c1 (stereo not shown) [Example 55] | < 0.05 | 7.00 to 7.30 |  | ≥ 7.30 | < 0.05
C=CC(=O)Nc1cccc(Oc2nc(Nc3ccc(N4CCC(CO)CC4)cc3)nc3ccsc23)c1 [Example 40] | 0.05 to 0.1 | 7.00 to 7.30 |  | 7.00 to 7.30 | < 0.05
C=CC(=O)Nc1cccc(Oc2nc(Nc3ccc(N4CCC(N5CCCCC5)CC4)c(F)c3)nc3ccsc23)c1 [Example 125] | < 0.05 | ≥ 7.30 | > 1 | ≥ 7.30 | < 0.05
C=CC(=O)Nc1cccc(Oc2nc(Nc3ccc(C(=O)NC4CCN(C)CC4)c(Cl)c3)nc3ccsc23)c1 [Example 142] | < 0.05 | ≥ 7.30 | > 1 | ≥ 7.30 | < 0.05
C=CC(=O)Nc1cccc(Oc2nc(Nc3ccc(C(=O)NCCN(C)C)cc3)nc3ccsc23)c1 [Example 79] | 0.1 to 1 | ≥ 7.30 |  | ≥ 7.30 | < 0.05
C=CC(=O)Nc1cccc(Oc2nc(Nc3ccc(C(=O)N4CCN(CC)CC4)c(Cl)c3)nc3ccsc23)c1 [Example 203] | < 0.05 | ≥ 7.30 | > 1 | 7.00 to 7.30 | < 0.05
C=CC(=O)Nc1cccc(Oc2nc(Nc3ccc(N4CCN(C(C)C)CC4)cc3)nc3ccoc23)c1 [Example 229] | < 0.05 | ≥ 7.30 | 0.1 to 1 | ≥ 7.30 | < 0.05
C=CC(=O)Nc1cccc(Oc2nc(Nc3ccc(N4CCC(N5CCN(CC)CC5)CC4)cc3)nc3ccsc23)c1 [Example 50] | 0.1 to 1 | ≥ 7.30 | > 1 | 7.00 to 7.30 | < 0.05
C=CC(=O)Nc1cccc(Oc2nc(Nc3ccc(C4=CCN(C)CC4)cc3)nc3ccsc23)c1 [Example 51] | < 0.05 | ≥ 7.30 | > 1 | 7.00 to 7.30 | < 0.05
C=CC(=O)Nc1cccc(Oc2nc(Nc3ccc(C4CCN(C)CC4)c(F)c3)nc3ccsc23)c1 [Example 127] | < 0.05 | 7.00 to 7.30 |  | 7.00 to 7.30 | < 0.05
C=CC(=O)Nc1cccc(Oc2nc(Nc3ccc(N4CCN(C5CCN(C)CC5)CC4)nc3)nc3ccsc23)c1 [Example 148] | < 0.05 | ≥ 7.30 |  | 7.00 to 7.30 | < 0.05
C=CC(=O)Nc1cccc(Oc2nc(Nc3ccc(N4CC5CC4CN5C)cc3)nc3ccsc23)c1 (stereo not shown) [Example 28] | < 0.05 | ≥ 7.30 |  | ≥ 7.30 | 0.05 to 0.1
C=CC(=O)Nc1cccc(Oc2nc(Nc3ccc(NC4CCN(C)CC4)cc3)nc3ccsc23)c1 [Example 59] | 0.1 to 1 | ≥ 7.30 |  | 7.00 to 7.30 | < 0.05

The next lines start with the values.

GI50 [1] [µM] | pIC50 (BTK) | GI50 (A431 (EGFR WT)) [µM] | pIC50 (JAK3) | GI50 [2] [µM] | SMILES
< 0.05 | ≥ 7.30 | > 1 | ≥ 7.30 | < 0.05 | C=CC(=O)Nc1cccc(Oc2nc(Nc3ccc(C4CCN(CC)CC4)cc3)nc3ccsc23)c1 [Example 53]
< 0.05 | ≥ 7.30 | > 1 | 7.00 to 7.30 | < 0.05 | C=CC(=O)Nc1cccc(Oc2nc(Nc3ccc(OC4CCN(CC)CC4)cc3)nc3ccsc23)c1 [Example 66]
< 0.05 | 7.00 to 7.30 | > 1 | 7.00 to 7.30 | < 0.05 | C=CC(=O)Nc1cccc(Oc2nc(Nc3ccc(CN4CCN(CC)CC4)cc3)nc3ccsc23)c1 [Example 183]
< 0.05 | ≥ 7.30 | > 1 | ≥ 7.30 | < 0.05 | C=CC(=O)Nc1ccc(F)c(Nc2nc(Nc3ccc(N4CCN(C)CC4)c(F)c3)nc3ccsc23)c1 [Example 219, N-(4-fluoro-3-(2-(3-fluoro-4-(4-methyl-piperazin-1-yl)-phenylamino)-thieno[3,2-d]pyrimidin-4-ylamino)-phenyl)-acrylamide]
< 0.05 | ≥ 7.30 | > 1 | ≥ 7.30 | < 0.05 | C=CC(=O)Nc1cccc(Oc2nc(Nc3ccc(OCCN(C)C)cc3)nc3ccsc23)c1 [Example 62]
< 0.05 | ≥ 7.30 |  | 7.00 to 7.30 | < 0.05 | C=CC(=O)Nc1cccc(Oc2nc(Nc3ccc(CN(CC)CC)cc3)nc3ccsc23)c1 [Example 174]
< 0.05 | ≥ 7.30 | 0.1 to 1 | ≥ 7.30 | < 0.05 | C=CC(=O)Nc1cccc(Oc2nc(Nc3ccc(C(=O)NC4CCN(C(C)C)CC4)cc3)nc3ccsc23)c1 [Example 83]
< 0.05 | ≥ 7.30 | > 1 | ≥ 7.30 | < 0.05 | C=CC(=O)Nc1cccc(Oc2nc(Nc3ccc(CN4CCC(N(C)C)CC4)cc3)nc3ccsc23)c1 [Example 180]
< 0.05 | ≥ 7.30 | 0.1 to 1 | ≥ 7.30 | < 0.05 | C=CC(=O)Nc1cccc(Oc2nc(Nc3ccc(N4CCN(C(C)C)CC4)cc3)nc3ccsc23)c1 [Example 11]
< 0.05 | ≥ 7.30 | 0.1 to 1 | ≥ 7.30 | < 0.05 | C=CC(=O)Nc1cccc(Oc2nc(Nc3ccc(CN(C)C)cc3)nc3ccsc23)c1 [Example 173]
< 0.05 | 7.00 to 7.30 |  | 7.00 to 7.30 | < 0.05 | C=CC(=O)Nc1cccc(Oc2nc(Nc3ccc(N4CCC(N5CCCC5)CC4)cc3)nc3ccsc23)c1 [Example 47]
< 0.05 | 7.00 to 7.30 |  | ≥ 7.30 | < 0.05 | C=CC(=O)Nc1cccc(Oc2nc(Nc3ccc(NC4CCN(C(C)C)CC4)c(F)c3)nc3ccsc23)c1 [Example 130]
< 0.05 | 7.00 to 7.30 |  | 7.00 to 7.30 | < 0.05 | C=CC(=O)Nc1cccc(Oc2nc(Nc3ccc(CS(C)(=O)=O)cc3)nc3ccsc23)c1 [Example 95]
< 0.05 | ≥ 7.30 |  | ≥ 7.30 | 0.1 to 1 | C=CC(=O)Nc1cccc(Oc2nc(Nc3ccc(CC(=O)NC4CCN(C)CC4)cc3)nc3ccsc23)c1 [Example 103]
< 0.05 | ≥ 7.30 | > 1 | 7.00 to 7.30 | < 0.05 | C=CC(=O)Nc1cccc(Oc2nc(Nc3ccc(N4CCC(CN5CCCCC5)CC4)cc3)nc3ccsc23)c1 [Example 42]
